In patent publication US20140038920A1, “TFEB PHOSPHORYLATION INHIBITORS AND USES THEREOF” (FONDAZIONE TELETHON, priority 2011, published 2014):

Key:
TFEB = TFEB molecular weight shift and localization in TFEB-3xFLAG HeLa cells stimulated with amino-acid rich medium plus inhibitor (FIG. 19B); type: cell-based; details: Torin 1 250 nM, Rapamycin 2.5 μM
Protocol: FIG. 19 mTORC1 regulates TFEB. (A) Lysosomal stress inhibits mTOR signaling. Immunoblotting of protein extracts isolated from HeLa cells treated overnight, as indicated. Membranes were probed with antibodies for p-T202/Y204-ERK1/2, ERK1/2, p-T389-S6K, and S6K to measure ERK and mTORC1 activities. […] FLAG immunoblotting of cytosolic and nuclear fractions isolated from TFEB-3×FLAG HeLa cells cultured in amino acid-free media and subsequently stimulated as indicated for at least 3 h. Correct subcellular fractionation was verified with H3 and tubulin antibodies. (C, D) Effects and dose—response curves of ERK and mTOR inhibitors on TFEB nuclear translocation. […] After 3 h at 37° C. in RPMI medium containing one of each of the compounds, the cells were washed, fixed, and stained with DAPI and photographed by using confocal automated microscopy (Opera high content system, Perkin Elmer). (C) Representative images of test concentrations for each compound. Scale bars represent 30 μm. […] The EC50 for each compound was calculated using Prism software (see Materials and Methods for details). (E) Amino acids induce TFEB molecular weight shift. Immunoblotting of protein extracts isolated from HEK-293T cells transfected either TFEB-3×FLAG or with an empty vector were nutrient starved and stimulated for 50 minutes with amino acids (a.a.). Antibody used were p-T389-S6K, S6K and FLAG. (F) Rag knockdown induces TFEB nuclear translocation. HeLa cells stably expressing Flag-3×TFEB were infected with lentiviruses encoding a Short hairpin (Sh-) RNA targeting luciferase (control) or RagC and RagD mRNAs. […] TFEB localization was detected with a FLAG antibody, whereas tubulin and H3 were used as controls for the cytosolic and nuclear fraction, respectively; levels of S6K phosphorylation were used to test RagC and RagD knockdown efficiency.
The mouse anti-TFEB monoclonal antibody was purchased from My Biosource catalogue No. MBS 120432. To generate anti-pS142 specific antibodies, rabbits were immunized with the following peptide coupled to KLH: AGNSAPN{pSer}[…]. Following the fourth immunization, rabbits were sacrificed and the serum was collected. Non-phosphospecific antibodies were depleted from the serum by circulation through a column containing the nonphosphorylated antigene. The phosphospecific antibodies were subsequently purified using a column containing the phosphorylated peptide. Cells were lysed with M-PER buffer (Thermo) containing protease and phosphatase inhibitors (Sigma); nuclear/cytosolic fractions were isolated as above described. Proteins were separated by SDS-PAGE (Invitrogen; reduced NuPAGE 4-12% Bis-tris Gel, MES SDS buffer). If needed, the gel was stained using 20 ml Imperial Protein Stain (Thermo Fisher) at room temperature for 1 h and de-stained with water. […]

ERK = assay: p-ERK levels in primary hepatocytes (FIG. 21A); type: cell-based, mouse; details: primary hepatocytes treated overnight
Description: Subsequently, cells were lysed and protein extracts were immunoblotted with the indicated antibodies. […] Quantitative PCR (qPCR) of TFEB target genes in primary hepatocytes from control (flox/flox) and Tcfeb−/− (flox/flox; alb-Cre) mice. […] The expression levels are shown as % increased expression of the treated versus the corresponding untreated samples. Values represent means±s.d. of three independent hepatocyte preparations (three mice/genotype). Student's t-test (two tailed) *P-value ≦0.05.

[1] = tested on: glycosaminoglycan (GAG) accumulation in MSD NSCs; assay: Alcian blue staining of GAGs in differentiated NSCs from MSD mice (FIG. 22); type: cell-based, mouse; details: glia-differentiated MSD NSCs, 10 nM, 24 hours, versus DMSO
Protocol: After 24 hours, the GAG content was determined by alcian blue (AB) staining. Both torins were able to reduce GAG staining in MSD treated cells as compared to DMSO treated cells.
Neuronal progenitor cells were isolated from cortices of WT and MSD pups (P0) by tissue homogenization using the neural tissue dissociation kit and separation using magnetic sorting of cells expressing the stem cell marker prominin-1 (Miltenyi Biotec Srl). Neuronal progenitor cells were maintained in ESGRO complete medium (Hyclone) in the presence of EGF and FGF2 growth factors (Prepotech). Where indicated, neural stem cells (NSCs) were differentiated by removing growth factors and incubate in ESGRO medium containing 2% of serum for at least 48 h.
Neuronal progenitor cells were isolated from cortices of WT and MSD pups (P0) by using standard protocols. Neuronal stem cells (NSCs) were fixed in Methacarn (60% Methanol; 10% Acetic Acid; 30% Chloroform) for 15 min at RT. After washing the cells were stained for 3 hours in 1% alcian blue pH 2.5, rinsed in 0.3% acetic acid and water and mounted in 100% for visualization.

CO[C@H]1C[C@@H]2CC[C@@H](C)[C@@](O)(O2)C(=O)C(=O)N2CCCC[C@H]2C(=O)O[C@H]([C@H](C)C[C@@H]2CC[C@@H](O)[C@H](OC)C2)CC(=O)[C@H](C)/C=C(\C)[C@@H](O)[C@@H](OC)C(=O)[C@H](C)C[C@H](C)/C=C/C=C/C=C/1C [RAPAMYCIN]
TFEB subcellular localization after nutrient stimulation (TFEB): did not affect TFEB subcellular localization
TFEB molecular weight shift induced by nutrients (TFEB; U0126 50 μM): partial molecular weight shift

CCC(=O)N1CCN(c2ccc(-n3c(=O)ccc4cnc5ccc(-c6cnc7ccccc7c6)cc5c43)cc2C(F)(F)F)CC1 [TORIN 1]
TFEB subcellular localization after nutrient stimulation (TFEB): massive TFEB nuclear accumulation
levels of p-ERK (ERK): unaffected
alcian blue-stained GAGs [1]: striking reduction
